Measurements published in ChEMBL document CHEMBL1147296, “Faeriefungin: a new broad-spectrum antibiotic from Streptomyces griseus var. autotrophicus” (J Nat Prod, 1989).
Values after ≈ are worked out from the molar mass of the structure shown.

Experiments:
Aspergillus fumigatus = assay: Antifungal activity against Aspergillus fumigatus MSU-SM 920 after 2 to 4 days; assay type: functional
Trichophyton rubrum = assay: Antifungal activity against Trichophyton rubrum after 2 to 4 days; assay type: functional
Candida albicans = assay: Antifungal activity against Candida albicans MSU-SM 543 after 2 to 4 days; assay type: functional
Microsporum canis = assay: Antifungal activity against Microsporum canis after 2 to 4 days; assay type: functional
[1] = Toxicity against human erythrocytes at 50 ppm after 60 mins by turbidimetry; assay type: cell-based; conditions: erythrocyte, 1 h
[2] = Toxicity against human erythrocytes at 0.05 ppm after 60 mins by turbidimetry; assay type: cell-based; conditions: erythrocyte, 1 h
[3] = Toxicity against rat WB-F344 cells assessed as cell viability at 0.5 ppm after 1 hr using trypan blue staining by LDH assay; assay type: cell-based; conditions: read-out: Activity
[4] = Toxicity against rat WB-F344 cells assessed as cell viability at 50 ppm after 1 hr using trypan blue staining by LDH assay; assay type: cell-based; conditions: read-out: Activity
[5] = Toxicity against human erythrocytes at 0.5 ppm after 60 mins by turbidimetry; assay type: cell-based; conditions: erythrocyte, 1 h
[6] = Toxicity against rat WB-F344 cells assessed as cell viability at 0.05 ppm after 1 hr using trypan blue staining by LDH assay; assay type: cell-based; conditions: read-out: Activity
[7] = Toxicity against rat WB-F344 cells assessed as cell viability at 20 ppm after 1 hr using trypan blue staining by LDH assay; assay type: cell-based; conditions: read-out: Activity
[8] = Toxicity against human erythrocytes at 20 ppm after 60 mins by turbidimetry; assay type: cell-based; conditions: erythrocyte, 1 h

Compound	MIC (Aspergillus fumigatus)	MIC (Trichophyton rubrum)	MIC (Candida albicans)	MIC (Microsporum canis)	Activity [1]	Activity [2]	viability at 1 h, 0.5 ppm [3]	viability at 1 h, 50 ppm [4]	Activity [5]	viability at 1 h, 0.05 ppm [6]	viability at 1 h, 20 ppm [7]	Activity [8]
Clc1ccc(COC(Cn2ccnc2)c2ccc(Cl)cc2Cl)c(Cl)c1 (configuration not stated) [MICONAZOLE]	8 µg/mL (≈ 19.2 µM)	80 µg/mL (≈ 192 µM)	1 µg/mL (≈ 2.4 µM)	16 µg/mL (≈ 38.4 µM)								
NYSTATIN	100 µg/mL	100 µg/mL	3.2 µg/mL	100 µg/mL								
Clc1ccccc1C(c1ccccc1)(c1ccccc1)n1ccnc1 [CLOTRIMAZOLE]	1 µg/mL (≈ 2.9 µM)	80 µg/mL (≈ 232 µM)	1 µg/mL (≈ 2.9 µM)	16 µg/mL (≈ 46.4 µM)								
C[C@@H]1C/C=C/C=C/C=C/C=C/[C@H](O[C@@H]2O[C@H](C)[C@@H](O)[C@H](N)[C@@H]2O)C[C@@H]2O[C@](O)(C[C@@H](O)C[C@H]3O[C@@H]3/C=C/C(=O)O1)C[C@H](O)[C@H]2C(=O)O [NATAMYCIN]	16 µg/mL (≈ 24 µM)	16 µg/mL (≈ 24 µM)	5.5 µg/mL (≈ 8.26 µM)	16 µg/mL (≈ 24 µM)								
C[C@@H]1[C@H](O)[C@@H](C)/C=C/C=C/C=C/C=C/C=C/C=C/C=C/[C@H](O[C@@H]2O[C@H](C)[C@@H](O)[C@H](N)[C@@H]2O)C[C@@H]2O[C@](O)(C[C@@H](O)C[C@@H](O)[C@H](O)CC[C@@H](O)C[C@@H](O)CC(=O)O[C@H]1C)C[C@H](O)[C@H]2C(=O)O [AMPHOTERICIN B]	80 µg/mL (≈ 86.6 µM)	16 µg/mL (≈ 17.3 µM)	3.2 µg/mL (≈ 3.46 µM)	16 µg/mL (≈ 17.3 µM)	Toxic	Non-toxic	100%	0%	Non-toxic	100%	0%	Toxic
CC(=O)N1CCN(c2ccc(OCC3COC(Cn4ccnc4)(c4ccc(Cl)cc4Cl)O3)cc2)CC1 (configuration not stated) [KETOCONAZOLE]	1 µg/mL (≈ 1.88 µM)	5.5 µg/mL (≈ 10.3 µM)	0.5 µg/mL (≈ 0.941 µM)	5.5 µg/mL (≈ 10.3 µM)								
